# According to patent EP4763839A1 (Pamplona Therapeutics (Shenzhen) Co., Ltd., priority 2023, dated 2025):
# Molecular target: T1, IRAK4 (Homo sapiens, UniProt Q9NWZ3)
# T1 sequence (Q9NWZ3 1-460): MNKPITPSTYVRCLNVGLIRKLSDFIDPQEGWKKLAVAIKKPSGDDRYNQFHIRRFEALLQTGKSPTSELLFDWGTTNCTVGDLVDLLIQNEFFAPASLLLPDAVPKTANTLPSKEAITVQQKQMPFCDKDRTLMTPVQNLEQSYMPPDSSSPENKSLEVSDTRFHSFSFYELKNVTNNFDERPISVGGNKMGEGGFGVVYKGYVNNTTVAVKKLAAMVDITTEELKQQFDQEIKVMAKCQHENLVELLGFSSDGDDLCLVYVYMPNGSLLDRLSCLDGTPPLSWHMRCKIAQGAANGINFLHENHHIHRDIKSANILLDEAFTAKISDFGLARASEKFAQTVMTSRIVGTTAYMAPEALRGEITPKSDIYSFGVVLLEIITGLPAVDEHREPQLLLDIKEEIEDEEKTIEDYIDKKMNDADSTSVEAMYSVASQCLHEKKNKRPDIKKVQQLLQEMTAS
# Assay: Assay for inhibitory effect of compound on IRAK4 kinase activity (KinEASE-STK S1 HTRF kit)
# Format: biochemical
# Conditions: not given
# Protocol: Example 1: Kinase activity assay
# Assay for inhibitory effect of compound on IRAK4 kinase activity
# The inhibitory effect of the compound on IRAK4 kinase activity was measured using the KinEASE-STK S1 serine/threonine kinase kit (Cisbio). The specific method was as follows: the compound was dissolved in dimethyl sulfoxide and then subjected to 3-fold serial dilution in dimethyl sulfoxide, yielding final test compound concentrations in the reaction system ranging from 5,000 nM to 0.0254 nM. The kinase at a final concentration of 8 nM was added, followed by incubation at rt for 15 minutes. Subsequently, biotinylated STK1 substrate at a final concentration of 400 nM and adenosine triphosphate (ATP) at a final concentration of 80 µM were sequentially added, and the mixture was incubated at 37°C for 90 minutes. Then, the reaction was terminated by adding an anti-phosphoserine/threonine antibody conjugated with a europium cryptate and streptavidin-conjugated XL665 to the reaction system. After incubation at rt for 1 hour, the fluorescence intensity at emission wavelengths of 620 nm and 665 nm for each well was measured using an EnVision microplate reader (PerkinElmer) in HTRF mode. The ratio value was calculated using the formula: Ratio = (665 nm/620 nm)×10^4 The inhibition rate of the compound at each concentration was calculated using the formula: Inhibition% = [1-(Signal sample-Signal min)/(Signal max-Signal min)]×100. Subsequently, the dose-response curve was fitted by nonlinear curve fitting of log concentration versus inhibition rate using Fit Modela (205) in XLfit to give the IC50 value of the compound for inhibition of protein activity.
row,SMILES,IC50 [nM]
1,NC(=O)c1nn(-c2ccc(C(=O)O)nc2)cc1NC(=O)c1cccc(C(F)(F)F)n1 [Compound A31],100 to 1000
2,COc1nn(-c2ccc(N3CCNCC3)cc2)cc1NC(=O)c1cccc(C(F)(F)F)n1 [Compound A39],100 to 1000

# Same assay, conditions: kinase 8 nM, ATP 80 µM, 37°C 90 minutes; read-out: IRAK4 HTRF IC50
row,IC50 [nM],SMILES
1,100 to 1000,NC(=O)c1nn(-c2ccc(C(=O)O)c(F)c2)cc1NC(=O)c1cccc(C(F)(F)F)n1 [Compound A17]
2,> 1000,NC(=O)c1cc(-c2ccccc2)oc1NC(=O)c1cccc(C(F)(F)F)n1 [Compound A53]
3,100 to 1000,"O=C(Nc1cn(C2CCCCC2)nc1C(=O)NC1CC1)c1cccc(-c2ccn[nH]2)n1 [Compound A255, N-(1-Cyclohexyl-3-(cyclopropylcarbamoyl)-1H-pyrazol-4-yl)-6-(1H-pyrazol-5-yl)picolinamide]"
4,< 100,"COc1nn(C2CC3(CCNCC3)C2)cc1NC(=O)c1ccc2cc(C#N)cnn12 [Compound A230, 3-Cyano-N-(3-methoxy-1-(7-azaspiro[3.5]nonan-2-yl)-1H-pyrazol-4-yl)pyrrolo[1,2-b]pyridazine-7-carboxamide]"
5,100 to 1000,"O=C(Nc1cn(-c2ccccc2)nc1CO)c1cccc(C(F)(F)F)n1 [Compound A74, N-(3-(hydroxymethyl)-1-phenyl-1H-pyrazol-4-yl)-6-(trifluoromethyl)picolinamide]"
6,< 100,"COc1nn(C2CCC2)cc1NC(=O)c1cnn2ccc(-c3cn[nH]c3)nc12 [Compound A289, N-(1-cyclobutyl-3-methoxy-1H-pyrazol-4-yl)-5-(1H-pyrazol-4-yl)pyrazolo[1,5-a]pyrimidine-3-carboxamide]"
7,> 1000,"CC(C)n1nc(-c2ccccc2)nc1NC(=O)c1cccc(C(F)(F)F)n1 [Compound A108, N-(1-Isopropyl-3-phenyl-1H-1,2,4-triazol-5-yl)-6-(trifluoromethyl)picolinamide]"
8,100 to 1000,NC(=O)c1nn(C2COC3(CCNCC3)C2)cc1NC(=O)c1cccc(C(F)(F)F)n1 (centres unmarked) [Compound A35]
9,< 100,"CC(C)(O)c1nn(-c2ccccc2)cc1NC(=O)c1ccc2cc(C#N)cnn12 [Compound A232, 3-Cyano-N-(3-(2-hydroxypropan-2-yl)-1-phenyl-1H-pyrazol-4-yl)pyrrolo[1,2-b]pyridazine-7-carboxamide]"
10,< 100,CN(C)Cc1ccc(-n2cc(NC(=O)c3cccc(C(F)(F)F)n3)c(C(N)=O)n2)cc1 [Compound A22]
11,< 100,NC(=O)c1nn(-c2ccc(N3CCNCC3)cc2)cc1NC(=O)c1cccc(C(F)(F)F)n1 [Compound A25]
12,100 to 1000,"CC(C)(O)c1nn(C2CCCCC2)cc1NC(=O)c1ccc2cc(C#N)cnn12 [Compound A259, 3-cyano-N-(1-cyclohexyl-3-(2-hydroxypropan-2-yl)-1H-pyrazol-4-yl)pyrrolo[1,2-b]pyridazine-7-carboxamide]"
13,< 100,"[C-]#[N+]c1cnn2c(C(=O)Nc3cn(-c4ccccc4)nc3OC)ccc2c1 [Compound A234, 3-Isocyano-N-(3-methoxy-1-phenyl-1H-pyrazol-4-yl)pyrrolo[1,2-b]pyridazine-7-carboxamide]"
14,< 100,"NS(=O)(=O)c1nn(-c2ccccc2)cc1NC(=O)c1cccc(-c2c[nH]cn2)n1 [Compound A94, 6-(1H-imidazol-4-yl)-N-(1-phenyl-3-sulfamoyl-1H-pyrazol-4-yl)picolinamide]"
15,> 1000,"NC(=O)c1oc(-c2ccccc2)nc1NC(=O)c1cccc(C(F)(F)F)n1 [Compound A57, 2-Phenyl-4-(6-(trifluoromethyl)picolinamido)oxazole-5-carboxamide]"
16,< 100,"NS(=O)(=O)c1nn(C2CCCCC2)cc1NC(=O)c1cccc(-c2ccn[nH]2)n1 [Compound A260, N-(1-Cyclohexyl-3-sulfamoyl-1H-pyrazol-4-yl)-6-(1H-pyrazol-5-yl)picolinamide]"
17,< 100,NC(=O)c1nn(-c2ccc(O)cc2)cc1NC(=O)c1cccc(C(F)(F)F)n1 [Compound A6]

# Continued, compound first:
row,SMILES,IC50 [nM]
1,CC(=O)N(C)Cc1ccc(-n2cc(NC(=O)c3cccc(C(F)(F)F)n3)c(C(N)=O)n2)cc1 [Compound A24],< 100
2,"NS(=O)(=O)c1nn(-c2ccccc2)cc1NC(=O)c1cccc(-c2cc[nH]c2)n1 [Compound A95, N-(1-phenyl-3-sulfamoyl-1H-pyrazol-4-yl)-6-(1H-pyrrol-3-yl)picolinamide]",< 100
3,"NC(=O)c1sc(-c2ccccc2)nc1NC(=O)c1cccc(C(F)(F)F)n1 [Compound A55, 2-Phenyl-4-(6-(trifluoromethyl)picolinamido)thiazole-5-carboxamide]",> 1000
4,"O=C(Nc1cn(-c2ccccc2)nc1OCC(F)(F)F)c1cccc(-c2ccn[nH]2)n1 [Compound A238, N-(1-Phenyl-3-(2,2,2-trifluoroethoxy)-1H-pyrazol-4-yl)-6-(1H-pyrazol-5-yl)picolinamide]",< 100
5,"CC(C)(O)c1nn(-c2ccccc2)cc1NC(=O)c1cccc(C(F)(F)F)n1 [Compound A46, N-(3-(2-hydroxypropan-2-yl)-1-phenyl-1H-pyrazol-4-yl)-6-(trifluoromethyl)picolinamide]",100 to 1000
6,NC(=O)c1nn(-c2ccc(CO)cc2)cc1NC(=O)c1cccc(C(F)(F)F)n1 [Compound A18],100 to 1000
7,NC(=O)c1cn(-c2ccccc2)cc1NC(=O)c1cccc(C(F)(F)F)n1 [Compound A47],< 100
8,NS(=O)(=O)c1nn(-c2ccccc2)cc1NC(=O)c1cccc(-c2cn[nH]c2)n1 [Compound A93],< 100
9,NC(=O)c1nn(-c2ccccc2)cc1NC(=O)c1cccc(-c2cc[nH]n2)n1 [Compound A88],< 100
10,"O=C(Nc1cn(C2CCNCC2)nc1C(=O)NC1CC1)c1cccc(-c2ccn[nH]2)n1 [Compound A256, N-(3-(Cyclopropylcarbamoyl)-1-(piperidin-4-yl)-1H-pyrazol-4-yl)-6-(1H-pyrazol-5-yl)picolinamide]",< 100
11,"O=C(Nc1cn(-c2ccccc2)nc1C1CC(O)C1)c1cccc(C(F)(F)F)n1 (centres unmarked) [Compound A65, N-(3-(3-hydroxycyclobutyl)-1-phenyl-1H-pyrazol-4-yl)-6-(trifluoromethyl)picolinamide]",> 1000
12,NC(=O)c1nn(-c2ccccc2)cc1NC(=O)c1cccc(-c2c[nH]cn2)n1 [Compound A90],< 100
13,"O=C(Nc1cn(C2CCC2)nc1C(F)F)c1ccn2ncc(-c3ccn[nH]3)c2n1 [Compound A279, N-(1-cyclobutyl-3-(difluoromethyl)-1H-pyrazol-4-yl)-3-(1H-pyrazol-5-yl)pyrazolo[1,5-a]pyrimidine-5-carboxamide]",100 to 1000
14,NC(=O)c1nc(-c2ccccc2)[nH]c1NC(=O)c1cccc(C(F)(F)F)n1 [Compound A54],> 1000
15,"[2H]C([2H])C(=O)c1nn(-c2ccccc2)cc1NC(=O)c1cccc(-c2ccn[nH]2)n1 [Compound A242, N-(3-(Acetyl-2,2-d2)-1-phenyl-1H-pyrazol-4-yl)-6-(1H-pyrazol-5-yl)picolinamide]",< 100
16,CNC(=O)c1ccc(-n2cc(NC(=O)c3cccc(C(F)(F)F)n3)c(C(N)=O)n2)cc1 [Compound A14],< 100
17,"O=C(Nc1cn(-c2ccccc2)nc1C(=O)NC1CC1)c1cccc(C(F)(F)F)n1 [Compound A86, N-(3-(cyclopropylcarbamoyl)-1-phenyl-1H-pyrazol-4-yl)-6-(trifluoromethyl)picolinamide]",100 to 1000
18,"CC(C)(O)c1cn(-c2ccccc2)nc1NC(=O)c1cccc(C(F)(F)F)n1 [Compound A61, N-(4-(2-hydroxypropan-2-yl)-1-phenyl-1H-pyrazol-3-yl)-6-(trifluoromethyl)picolinamide]",> 1000
19,NC(=O)c1nn(C2CCN(CCN3CCN(c4ccc5c(c4)C(=O)N(C4CCC(=O)NC4=O)C5=O)CC3)CC2)cc1NC(=O)c1cccc(C(F)(F)F)n1 (centres unmarked) [Compound A109],100 to 1000
20,"COc1nn(C2CCCCC2)cc1NC(=O)c1cccc(-c2ccn[nH]2)n1 [Compound A263, N-(1-Cyclohexyl-3-methoxy-1H-pyrazol-4-yl)-6-(1H-pyrazol-5-yl)picolinamide]",100 to 1000
21,"NC(=O)c1nc(-c2ccccc2)oc1NC(=O)c1cccc(C(F)(F)F)n1 [Compound A58, 2-Phenyl-5-(6-(trifluoromethyl)picolinamido)oxazole-4-carboxamide]",> 1000
22,"CC(=O)c1nn(-c2ccccc2)cc1NC(=O)c1cccc(-c2ccn[nH]2)n1 [Compound A241, N-(3-Acetyl-1-phenyl-1H-pyrazol-4-yl)-6-(1H-pyrazol-5-yl)picolinamide]",< 100
